Data reported in ChEMBL document CHEMBL3507680, “University of Dundee, Gates Library screen for HepG2 cell viability”.

Assay: Human HepG2 cell viability assay in 384 well format
Assay type: toxicity, cell-based
Design: dose 125 nL, time 70.5 hour; cytotoxicity at 70.5 h: concentration not given beside the values
Settings: HepG2 cells, read-out: Inhibition

Row | Compound | cytotoxicity at 70.5 h
1 | CC(C)COC1CCN(S(=O)(=O)Cc2cccc(F)c2)CC1 | -14.2%
2 | COc1ccnc(N2CCN(Cc3nc(-c4ccoc4)no3)CC2)c1 | -0.129%
3 | N#CC1(NC(=O)c2ccc(-c3nc(C4CC4)n[nH]3)cc2)CCSC1 (centres undefined) | -18.6%
4 | O=C(Nc1cccnn1)NC(CCCO)c1ccccc1 (centres undefined) | -14.5%
5 | N#CC1(NC(=O)c2ccc(-c3nc(C4CC4)n[nH]3)cc2)CCC1 | -16.7%
6 | N#Cc1cc(F)ccc1Cn1cnc(C2CCC2)cc1=O | 1.8%
7 | COCC1CCCN(C(=O)c2ccc(NC(=O)CC(C)C)c(C)c2)C1 (centres undefined) | -17.4%
8 | Cc1ccc(CN(C)C(=O)c2cnsn2)cc1 | 4.93%
9 | COCCN1CCN(Cc2nc(-c3ccoc3)no2)CC1 | -4.32%
10 | Cc1cc(NC(=O)C(C)N2CCN(c3ccc(C#N)cc3F)CC2)no1 (centres undefined) | -11.7%
11 | CC(C)(C)c1nc(NS(=O)(=O)c2ccc(F)cc2)no1 | -17.2%
12 | CCOCC(=O)NCCc1ccc(I)s1 | 18.6%
13 | Cc1cc(C(=O)N2CCCC2)ccc1NCCOCC(F)(F)F | 9.16%
14 | CC(CO)(NC(=O)Nc1nnc(C(F)F)s1)C1CC1 (centres undefined) | 4%
15 | Cc1cccc2c(CCNS(=O)(=O)C3CCOC3)c[nH]c12 (centres undefined) | 12.8%
16 | Cc1c(C(=O)NCCC(=O)N2CCOCC2)oc2c(C)cccc12 | -12.9%
17 | COC(=O)CN(Cc1ccccc1C)C(=O)CCNC(=O)C(C)(C)C | -6.72%
18 | CC(C)(C)C(O)CN1CCN(CC(=O)NCC(F)(F)F)CC1 (centres undefined) | 13.1%
19 | CC(Nc1ccc(CC(=O)N(C)C)cc1)C(=O)N(C)CCC#N (centres undefined) | -12.3%
20 | CC(CO)(NC(=O)Nc1nncs1)C1CCCCC1 (centres undefined) | 2.4%
21 | Cc1nncn1CCNC(=O)C(C)(C)c1cccc(C(F)(F)F)c1 | -9.3%
22 | Cc1nncn1CCNC(=O)C(C)(C)c1cccc(F)c1 | -7.47%
23 | O=S(=O)(NCCc1c[nH]c2cc(F)ccc12)C1CCOC1 (centres undefined) | 0.583%
24 | CN1CCN(Cc2cccc(NCc3ncc[nH]3)c2)CC1 | 8%
25 | Cc1cc(-c2nc(C3(NC(=O)OC(C)(C)C)CCC3)no2)on1 | -5.47%
26 | Cc1nncn1CCNC(=O)C(C)(C)c1cccc(Cl)c1 | -8.68%
27 | CCc1nc2n(n1)CCCC2NC(=O)Nc1ccc(SC)c(F)c1 (centres undefined) | -6.66%

Row | Compound | cytotoxicity at 70.5 h
28 | CCN(C)CC1CCN(C(=O)Nc2ccc(-c3cc[nH]n3)cc2)C1 (centres undefined) | 11.5%
29 | Fc1cccc(CCN(c2ccc3nnnn3n2)C2CC2)c1 | -17.4%
30 | CC(C)COCC(NC(=O)Cc1ccn[nH]1)c1ccco1 (centres undefined) | -6.61%
31 | COc1cc2ccn(CCS(C)(=O)=O)c(=O)c2cc1F | -2.4%
32 | Cc1ncsc1CN1C[C@@H]2CN(S(C)(=O)=O)CCO[C@@H]2C1 | -7.53%
33 | O=C(C1CCOC1)N1CCC2(CC1)Cc1ccccc1CNC2=O (centres undefined) | -9.03%
34 | O=C1NCCO[C@H]2CN(C(=O)Cc3cccs3)CC[C@@H]12 | -7.13%
35 | Cn1cc(-c2ncc3c(c2C(=O)O)CCN(CC2CCOC2)C3)cn1 (centres undefined) | -3.12%
36 | Cc1ccc(NC(=O)N2CCC3(CCC(C(=O)N(C)C)O3)CC2)cc1 (centres undefined) | -4.12%
37 | Cc1nc(-c2nc(C(=O)N(C)C)c3ccccn23)cn1C(C)C | -8.88%
38 | Cc1nnc([C@@]23CCO[C@@H]2CCN(Cc2nccs2)C3)o1 | -9.1%
39 | Cc1nc(-c2nc(C(=O)NC3CC3)c3ccccn23)cn1C(C)C | -2.95%
40 | CN(C)C(=O)C1CCC2(CCN(C(=O)Nc3cccc(F)c3)CC2)O1 (centres undefined) | -5.9%
41 | O=C(c1cccs1)N1CCC2(CC1)CCN(S(=O)(=O)C1CC1)CC2 | -11.7%
42 | CS(=O)(=O)N1CCC2(CCN(C(=O)c3cccs3)CC2)CC1 | -8.9%
43 | CN(C)C(=O)C1CCC2(CCN(C(=O)Nc3ccccc3)CC2)O1 (centres undefined) | -8%
44 | Cc1cccc(NC(=O)N2CCC3(CCC(C(=O)N(C)C)O3)CC2)c1 (centres undefined) | -11.4%
45 | COC1COC2(CCN(S(=O)(=O)c3ccc(F)cc3)CC2)C1 (centres undefined) | 17.1%
46 | CN1CCC(CO[C@H]2CN(C(=O)c3cccn3C)[C@@H]3COC[C@H]23)CC1 | -11.6%
47 | Cn1ccnc1C(=O)NC[C@H]1OC[C@@H]2CCN(S(C)(=O)=O)C[C@@H]21 | 21.4%
48 | CC(C)N1C(=O)C[C@H]2[C@@H]1CCN2C(=O)c1ccco1 | 24.5%
49 | Cc1ccsc1C(=O)N1CCc2ncc(Cn3cccn3)n2CC1 | -6.33%
50 | Cc1cccc(N2CC3(COCCN(c4ccncn4)C3)OCC2=O)c1 (centres undefined) | 0.341%
51 | CC(=O)N1CCC2(CC1)C(=O)N(C)c1ccc(F)cc12 | -8.53%
52 | O=C1COC2(COCCN(c3cnccn3)C2)CN1c1cccc(F)c1 (centres undefined) | -6.69%
53 | Cn1cc(CN2C[C@@H]3CCC[C@@H](OCc4cccnc4)[C@@H]3C2)cn1 | 3.45%
54 | CN1C(=O)CC(c2ccccc2)C12CCN(c1ncc(F)cn1)CC2 (centres undefined) | -1.24%
